The values below are quoted from earlier work in patent US20260232695A1, “ORAL FORMULATIONS OF ABIRATERONE ACETATE AND METHOD OF MANUFACTURING THEREOF” (BDR PHARMACEUTICALS INTERNATIONAL PRIVATE LIMITED, priority 2022, published 2026).

For the data set the following is noted: poor solubility in water and lower lipid permeability.

For the molecule `CC(=O)O[C@H]1CC[C@@]2(C)C(=CC[C@@H]3[C@@H]2CC[C@]2(C)C(c4cccnc4)=CC[C@@H]32)C1` [Abiraterone Acetate, 17-(pyridin-3-yl)androsta-5,16-dien-3β-yl acetate], the BCS class entry is given as “Class IV”.
